Legend:
Type in all cases: cell-based, human
[1] = system: SK-MEL-2; experiment: NCI 60 cell line screen (Melanoma); conditions: for GI50: Homo sapiens, SK-MEL-2, NCI 5 dose assay; for Growth percentage: SK-MEL-2, single dose 10 µM
[2] = system: A549/ATCC; experiment: NCI 60 cell line screen (Non-Small Cell Lung Cancer); conditions: for GI50: Homo sapiens, NCI 5 dose assay; for Growth percentage: single dose 10 µM
[3] = system: NCI-H460; experiment: as above; conditions: for GI50: Homo sapiens, NCI-H460, NCI 5 dose assay; for Growth percentage: NCI-H460, single dose 10 µM
[4] = system: SF-268; experiment: NCI 60 cell line screen (CNS Cancer); conditions: for GI50: Homo sapiens, SF-268, NCI 5 dose assay; for Growth percentage: SF-268, single dose 10 µM
[5] = system: MDA-MB-468; experiment: NCI 60 cell line screen (Breast Cancer); conditions: for GI50: Homo sapiens, MDA-MB-468, NCI 5 dose assay; for Growth percentage: MDA-MB-468, single dose 10 µM
[6] = system: HOP-62; experiment: NCI 60 cell line screen (Non-Small Cell Lung Cancer); conditions: for Growth percentage: HOP-62, single dose 10 µM; for GI50: Homo sapiens, HOP-62, NCI 5 dose assay
[7] = system: HOP-92; experiment: as above; conditions: for Growth percentage: HOP-92, single dose 10 µM; for GI50: Homo sapiens, HOP-92, NCI 5 dose assay
[8] = system: KM12; experiment: NCI 60 cell line screen (Colon Cancer); conditions: for GI50: Homo sapiens, KM12, NCI 5 dose assay; for Growth percentage: KM12, single dose 10 µM
[9] = system: PC-3; experiment: NCI 60 cell line screen (Prostate cancer); conditions: for GI50: Homo sapiens, PC-3, NCI 5 dose assay; for Growth percentage: PC-3, single dose 10 µM
[10] = system: NCI-H226; experiment: NCI 60 cell line screen (Non-Small Cell Lung Cancer); conditions: for GI50: Homo sapiens, NCI-H226, NCI 5 dose assay; for Growth percentage: NCI-H226, single dose 10 µM
[11] = system: A498; experiment: NCI 60 cell line screen (Renal Cancer); conditions: for Growth percentage: A498, single dose 10 µM; for GI50: Homo sapiens, A498, NCI 5 dose assay
[12] = system: HCT-116; experiment: NCI 60 cell line screen (Colon Cancer); conditions: for Growth percentage: HCT-116, single dose 10 µM; for GI50: Homo sapiens, HCT-116, NCI 5 dose assay
[13] = system: OVCAR-5; experiment: NCI 60 cell line screen (Ovarian Cancer); conditions: for GI50: Homo sapiens, OVCAR-5, NCI 5 dose assay; for Growth percentage: OVCAR-5, single dose 10 µM
[14] = system: UACC-257; experiment: NCI 60 cell line screen (Melanoma); conditions: for GI50: Homo sapiens, UACC-257, NCI 5 dose assay; for Growth percentage: UACC-257, single dose 10 µM
[15] = system: MDA-MB-231/ATCC; experiment: NCI 60 cell line screen (Breast Cancer); conditions: for GI50: Homo sapiens, NCI 5 dose assay; for Growth percentage: single dose 10 µM
[16] = system: OVCAR-3; experiment: NCI 60 cell line screen (Ovarian Cancer); conditions: for GI50: Homo sapiens, OVCAR-3, NCI 5 dose assay; for Growth percentage: OVCAR-3, single dose 10 µM
[17] = system: M14; experiment: NCI 60 cell line screen (Melanoma); conditions: for GI50: Homo sapiens, M14, NCI 5 dose assay; for Growth percentage: M14, single dose 10 µM
[18] = system: DU-145; experiment: NCI 60 cell line screen (Prostate cancer); conditions: for Growth percentage: DU-145, single dose 10 µM; for GI50: Homo sapiens, DU-145, NCI 5 dose assay
[19] = system: UO-31; experiment: NCI 60 cell line screen (Renal Cancer); conditions: for GI50: Homo sapiens, UO-31, NCI 5 dose assay; for Growth percentage: UO-31, single dose 10 µM
[20] = system: MDA-MB-435; experiment: NCI 60 cell line screen (Melanoma); conditions: for GI50: Homo sapiens, MDA-MB-435, NCI 5 dose assay; for Growth percentage: MDA-MB-435, single dose 10 µM
[21] = system: RXF 393; experiment: NCI 60 cell line screen (Renal Cancer); conditions: for Growth percentage: RXF 393, single dose 10 µM
[22] = system: IGROV1; experiment: NCI 60 cell line screen (Ovarian Cancer); conditions: for GI50: Homo sapiens, IGROV-1, IGROV1, NCI 5 dose assay; for Growth percentage: IGROV1, single dose 10 µM
[23] = system: HCT-2998; experiment: NCI 60 cell line screen (Colon Cancer); conditions: for Growth percentage: HCT-2998, single dose 10 µM; for GI50: Homo sapiens, 60 cell, HCT-2998, NCI 5 dose assay
[24] = system: NCI-H332M; experiment: NCI 60 cell line screen (Non-Small Cell Lung Cancer); conditions: for GI50: Homo sapiens, NCI 5 dose assay; for Growth percentage: single dose 10 µM
[25] = system: HL-60 (TB); experiment: NCI 60 cell line screen (Leukemia); conditions: for GI50: Homo sapiens, NCI 5 dose assay; for Growth percentage: single dose 10 µM
[26] = system: CAKI-1; experiment: NCI 60 cell line screen (Renal Cancer); conditions: for Growth percentage: CAKI-1, single dose 10 µM; for GI50: Homo sapiens, CAKI-1, NCI 5 dose assay
[27] = system: EKVX; experiment: NCI 60 cell line screen (Non-Small Cell Lung Cancer); conditions: for GI50: Homo sapiens, NCI 5 dose assay; for Growth percentage: single dose 10 µM
[28] = system: OVCAR-4; experiment: NCI 60 cell line screen (Ovarian Cancer); conditions: for GI50: Homo sapiens, OVCAR-4, NCI 5 dose assay; for Growth percentage: OVCAR-4, single dose 10 µM
[29] = system: LOX IMV1; experiment: NCI 60 cell line screen (Melanoma); conditions: for GI50: Homo sapiens, LOX IMV1, NCI 5 dose assay; for Growth percentage: LOX IMV1, single dose 10 µM
[30] = system: SK-MEL-28; experiment: NCI 60 cell line screen (Melanoma); conditions: SK-MEL-28, single dose 10 µM

COc1ccc(C(c2cc(OC)c(OC)c(OC)c2)n2cncn2)cc1O (stereo not drawn) [19e, 5-((1H-1,2,4-Triazol-1-yl)(3,4,5-Trimethoxyphenyl)methyl)-2-Methoxyphenol]
GI50 [1]: 0.361 µM
Growth percentage [1]: 55.94%
GI50 [2]: 0.969 µM
Growth percentage [2]: 18.6%
GI50 [3]: 0.414 µM
Growth percentage [3]: 9.82%
GI50 [4]: 0.469 µM
Growth percentage [4]: 48.75%
GI50 [5]: 0.371 µM
Growth percentage [5]: 7.88%
Growth percentage [6]: 32.17%
GI50 [6]: 0.514 µM
Growth percentage [7]: 43.92%
GI50 [7]: 9.69 µM
GI50 [8]: 0.418 µM
Growth percentage [8]: 21.79%
GI50 [9]: 0.431 µM
Growth percentage [9]: 21.20%
GI50 [10]: 1.43 µM
Growth percentage [10]: 73.39%
Growth percentage [11]: 9.66%
GI50 [11]: 0.324 µM
Growth percentage [12]: 7.25%
GI50 [12]: 0.448 µM
GI50 [13]: 1.99 µM
Growth percentage [13]: 72.98%
GI50 [14]: > 100 µM
Growth percentage [14]: 44.45%
GI50 [15]: 1.5 µM
Growth percentage [15]: 43.15%
GI50 [16]: 0.323 µM
Growth percentage [16]: 1.74%
GI50 [17]: 0.374 µM
Growth percentage [17]: -1.61%
Growth percentage [18]: 19.64%
GI50 [18]: 0.53 µM
GI50 [19]: 0.903 µM
Growth percentage [19]: 57.96%
GI50 [20]: 0.181 µM
Growth percentage [20]: -46.16%
GI50 ([21]; Homo sapiens, RXF 393, NCI 5 dose assay): 0.321 µM
Growth percentage [21]: -13.85%
GI50 [22]: 0.959 µM
Growth percentage [22]: 49.22%
Growth percentage [23]: 25.25%
GI50 [23]: 1.35 µM
GI50 [24]: 0.696 µM
Growth percentage [24]: 51.45%
GI50 [25]: 0.261 µM
Growth percentage [25]: -32.53%
Growth percentage [26]: 40.43%
GI50 [26]: 0.567 µM
GI50 [27]: 2.24 µM
Growth percentage [27]: 39.79%
GI50 [28]: 3.02 µM
Growth percentage [28]: 72.08%
GI50 [29]: 0.523 µM
Growth percentage [29]: 43.48%
Growth percentage [30]: 57.04%

COc1ccc(C(c2cc(OC)c(OC)c(OC)c2)N2CCCC2)cc1 (stereo not drawn) [25g]
Growth percentage [1]: 55.67%
Growth percentage [2]: 77.65%
Growth percentage [3]: 84.31%
Growth percentage [4]: 84.26%
Growth percentage [5]: 54.75%
Growth percentage [6]: 79.46%
Growth percentage [7]: 85.48%
Growth percentage [8]: 43.91%
Growth percentage [9]: 63.89%
Growth percentage [10]: 87.61%
Growth percentage [11]: 31.23%
Growth percentage [12]: 62.27%
Growth percentage [13]: 92.64%
Growth percentage [14]: 74.57%
Growth percentage [15]: 80.82%
Growth percentage [16]: 66.63%
Growth percentage [17]: 60.08%
Growth percentage [18]: 103.12%
Growth percentage [19]: 75.13%
Growth percentage [20]: -21.80%
Growth percentage [21]: 103.13%
Growth percentage [22]: 82.87%
Growth percentage [23]: 89.14%
Growth percentage [24]: 87.51%
Growth percentage [25]: 35.51%
Growth percentage [26]: 77.46%
Growth percentage [27]: 87.78%
Growth percentage [28]: 101.25%
Growth percentage [29]: 72.96%
Growth percentage [30]: 80.08%

COc1ccc(C(c2cc(OC)c(OC)c(OC)c2)N2CCN(Cc3ccccc3)CC2)cc1 (stereo not drawn) [27d]
Growth percentage [1]: 27.38%
Growth percentage [2]: 78.38%
Growth percentage [3]: 74.38%
Growth percentage [4]: 86.44%
Growth percentage [5]: 52.99%
Growth percentage [6]: 69.72%
Growth percentage [7]: 70.59%
Growth percentage [8]: 40.62%
Growth percentage [9]: 59.28%
Growth percentage [10]: 85.40%
Growth percentage [11]: 51.90%
Growth percentage [12]: 56.66%
Growth percentage [13]: 84.69%
Growth percentage [14]: 84.23%
Growth percentage [15]: 71.05%
Growth percentage [16]: 68.96%
Growth percentage [17]: 52.83%
Growth percentage [18]: 102.00%
Growth percentage [19]: 68.80%
Growth percentage [20]: -32.20%
Growth percentage [21]: 72.30%
Growth percentage [22]: 62.96%
Growth percentage [23]: 91.92%
Growth percentage [24]: 65.07%
Growth percentage [25]: 22.98%
Growth percentage [26]: 66.73%
Growth percentage [27]: 82.69%
Growth percentage [28]: 97.02%
Growth percentage [29]: 67.02%
Growth percentage [30]: 78.33%

COc1ccc(C(c2cc(OC)c(OC)c(OC)c2)n2ccnc2)cc1O (stereo not drawn) [21l, 5-((1H-Imidazol-1-yl)(3,4,5-Trimethoxyphenyl)Methyl)-2-Methoxyphenol]
GI50 [1]: 0.324 µM
Growth percentage [1]: 43.54%
GI50 [2]: 0.836 µM
Growth percentage [2]: 12.80%
GI50 [3]: 0.377 µM
Growth percentage [3]: 6.11%
GI50 [4]: 0.731 µM
Growth percentage [4]: 39.64%
GI50 [5]: 0.316 µM
Growth percentage [5]: 15.64%
Growth percentage [6]: 29.46%
GI50 [6]: 0.516 µM
Growth percentage [7]: 25.77%
GI50 [7]: 28.6 µM
GI50 [8]: 0.389 µM
Growth percentage [8]: 17.05%
GI50 [9]: 0.384 µM
Growth percentage [9]: 20.69%
GI50 [10]: 0.64 µM
Growth percentage [10]: 68.70%
Growth percentage [11]: 8.04%
GI50 [11]: 0.304 µM
Growth percentage [12]: 6.88%
GI50 [12]: 0.249 µM
GI50 [13]: 0.648 µM
Growth percentage [13]: 71.11%
GI50 [14]: 1.44 µM
Growth percentage [14]: 37.75%
GI50 [15]: 0.664 µM
Growth percentage [15]: 34.75%
GI50 [16]: 0.264 µM
Growth percentage [16]: -9.52%
GI50 [17]: 0.18 µM
Growth percentage [17]: 0.91%
Growth percentage [18]: 12.91%
GI50 [18]: 0.407 µM
GI50 [19]: 0.883 µM
Growth percentage [19]: 61.96%
GI50 [20]: 0.119 µM
Growth percentage [20]: -29.47%
Growth percentage [21]: -5.38%
GI50 [22]: 0.862 µM
Growth percentage [22]: 36.42%
Growth percentage [23]: 24.97%
GI50 [23]: 1.72 µM
GI50 [24]: 0.789 µM
Growth percentage [24]: 48.23%
GI50 [25]: 0.229 µM
Growth percentage [25]: -35.94%
Growth percentage [26]: 41.26%
GI50 [26]: 0.681 µM
GI50 [27]: 0.702 µM
Growth percentage [27]: 30.23%
GI50 [28]: 3.44 µM
Growth percentage [28]: 73.56%
GI50 [29]: 0.523 µM
Growth percentage [29]: 25.65%
Growth percentage [30]: 62.95%
